15 compounds from ChEMBL document CHEMBL1781897, “Synthesis, biological evaluation of prenylflavonoids as vasorelaxant and neuroprotective agents” (Bioorg Med Chem Lett, 2009) can be followed below.

Experiment [1] relates to PC-12. Put plainly: Neuroprotective activity against oxygen-glucose deprivation-induced cell injury in rat PC12 cells assessed as cell viability at 1 uM. Format: functional. Conditions: read-out: Activity.
The test system of experiment [2] is PC-12. The experiment is described as follows: Neuroprotective activity against oxygen-glucose deprivation-induced cell injury in rat PC12 cells assessed as cell viability. Format: functional, cell-based.
In experiment [3] the test system is Aorta. The experiment is described as follows: Vasorelaxant activity in rat aortic ring assessed as inhibition of phenylephrine-induced contraction relative to control. Type of experiment: functional.
For experiment [4], the system named is Aorta. The experiment is described as follows: Vasorelaxant activity in rat aortic ring assessed as inhibition of phenylephrine-induced contraction. Format: functional, tissue-based.
The test system of experiment [5] is PC-12. The experiment is described as follows: Neuroprotective activity against oxygen-glucose deprivation-induced cell injury in rat PC12 cells assessed as cell viability at 30 uM. Type of experiment: functional. To be noted: read-out: Activity.

Regarding `COc1cc(C2CC(=O)c3c(O)cc(O)c(CC=C(C)C)c3O2)ccc1O` (centres undefined), the viability at 1 µM in the experiment with PC-12 [1] was 94%. In the experiment with PC-12 [2], the Activity result was “Dose-dependent effect”.
Regarding `CC(C)=CCc1c(O)cc(O)c2c1OC(c1ccc(O)c(O)c1O)CC2=O` (centres undefined), in the experiment on PC-12 [1], the viability at 1 µM was 90.3%. Further, the Emax (in general, the maximal effect, on the per cent scale that the assay sets) in the experiment with Aorta [3] amounted to 69.7%.
Turning to `CC(C)=CCc1c(O)cc(O)c2c1OC(c1ccc(O)cc1O)CC2=O` (racemic), the EC50 (usually the concentration that produces a half-maximal response) in the experiment with Aorta [4] stood at 9.3 µM. Besides, the viability at 1 µM in the experiment with PC-12 [1] was 94.8%. Moreover, the Activity entry in the experiment with PC-12 [2] was “Dose-dependent effect”. The Emax with Aorta [3] worked out at 94.9%.
In the case of `CC(C)=CCc1c(O)cc(O)c2c1O/C(=C\c1ccc(O)cc1O)C2=O`, the viability at 1 µM in the experiment on PC-12 [1] turned out to be 90.4%. Also, in the experiment on Aorta [3], the Emax is 30.5%.
`CC(C)=CCc1c(O)cc(O)c2c1OC(c1ccc(O)cc1)CC2=O` (centres undefined) [SOPHORAFLAVANONE B]: the EC50 in the experiment with Aorta [4] was 72.7 µM. Besides, in the experiment with PC-12 [1], the viability at 1 µM came out at 89.3%. In addition, in the experiment on Aorta [3], the Emax was 101%.
For `CC(C)=CCc1c(O)cc(O)c2c1O/C(=C\c1ccc(O)cc1)C2=O`, in the experiment on PC-12 [1], the viability at 1 µM stood at 81.6%. In addition, the Emax with Aorta [3] worked out at 74.5%.
Regarding `COc1cc([C@@H]2CC(=O)c3c(O)cc(O)cc3O2)ccc1O` (racemic) [HOMOERIODICTYOL], in the experiment on Aorta [4], the EC50 is 82 µM. Moreover, in the experiment with PC-12 [1], the viability at 1 µM worked out at 89.1%. In the experiment on Aorta [3], the Emax stood at 74.9%.
With `CC(C)=CCc1c(O)cc(O)c2c(=O)cc(-c3ccc(O)c(O)c3)oc12`, in the experiment with PC-12 [1], the viability at 1 µM came to 91.5%. The Emax with Aorta [3] was found to be 62.5%.
With `CC(C)=CCc1c(O)cc(O)c2c1OC(c1cccc(Br)c1)CC2=O` (centres undefined), the viability at 1 µM with PC-12 [1] came out at 88.1%.
Same read-out and setting: the value for `CC(C)=CCc1c(O)cc(O)c2c(=O)cc(-c3ccc(O)c(O)c3O)oc12` was 88.6%.
For the compound `CC(C)=CCc1c(O)cc(O)c2c(=O)cc(-c3ccc(O)cc3O)oc12`, in the experiment on Aorta [4], the EC50 is 176 µM. Moreover, the viability at 1 µM with PC-12 [1] amounted to 93.5%. Further, in the experiment on PC-12 [2], the Activity result is “Dose-dependent effect”. Besides, in the experiment with Aorta [3], the Emax is 91.5%.
On to `CC(C)=CCc1c(O)cc(O)c(C(=O)/C=C/c2ccc(O)cc2)c1O` [DEMETHYLXANTHOHUMOL], for which the EC50 in the experiment with Aorta [4] was 8.5 µM. In the experiment on PC-12 [1], the viability at 1 µM stood at 86.7%. Further, the Emax with Aorta [3] turned out to be 81.4%.
For `CC1=NN(c2ccccc2)C(=O)C1` [EDARAVONE], the viability at 30 µM with PC-12 [5] came out at 93.2%.
In the case of `COc1cc(C2CC(=O)c3c(O)cc(O)c(CC=C(C)C)c3O2)cc(OC)c1OC` (centres undefined), the EC50 in the experiment on Aorta [4] is 25 µM. Further, in the experiment with PC-12 [1], the viability at 1 µM turned out to be 89.1%. Besides, the Emax with Aorta [3] is 66.3%.
`O=c1c(O)c(-c2ccc(O)c(O)c2)oc2cc(O)cc(O)c12` [QUERCETIN]: in the experiment on Aorta [3], the Emax amounted to 91.3%.
